In PubChem BioAssay AID179 (DTP/NCI, 2004):
The source made the active and inactive calls.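 The calls were made as follows: active = compounds giving half or more protection of infected cells from virus-caused growth loss, again on retest; inactive = the rest.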 Where a SMILES comes first, the peptide text is derived from it.

System: CEM cells HIV-1 protection, formazan growth assay
Assay: NCI AIDS Antiviral Assay
Conditions: for IC50: measured here: growth of uninfected CEM cells
Method in brief: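 Human CEM cells, uninfected and HIV-1-infected, received five drug concentrations, and growth was read by soluble formazan assay. Compounds giving at least 50% protection were retested; reproducible 100% protection defined confirmed active.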

| Structure (SMILES) | EC50 | IC50 | outcome |
| --- | --- | --- | --- |
| CS(=O)(=O)N(CCC#N)c1ccc(/C=N/NC(=O)CC(=O)Nc2cccc(Cl)c2)cc1 | > 204 µM | > 204 µM |  |
| COc1ccc2c(c1)c(=O)c1ccccc1n2/C=C/C(=O)O | > 617 µM | 105 µM |  |
| C=Cc1c(Cl)nc(C)c(C)c1-c1ccc(OC)c(OC)c1OCc1ccccc1 | > 200 µM | 25.1 µM |  |
| NC1=Nc2ccccc2N(O)N1 | > 158 µM | > 158 µM |  |
| CSc1c(C)n([O-])c2cc(Cl)c(Cl)cc2[n+]1=O | > 100 µM | 2.82 µM |  |
| CC1CCC2C1(C)CCC1C2(C)CCC2(C)C3CC(C)(C)CCC3(C)CCC12C (stereo not drawn) | 93.3 µM | > 100 µM |  |
| O=[N+]([O-])c1ccc(N2N=C(c3ccc4ccccc4c3O)CC2c2ccc(Cl)cc2)c([N+](=O)[O-])c1 (stereo not drawn) | > 200 µM | 43.7 µM |  |
| CN(C)CC1CCCC/C1=N/OC(=O)c1ccc(Cl)cc1 (stereo not drawn) |  |  | inactive |
| O=C1OCC2C(=O)OCC12 (stereo not drawn) | > 200 µM | > 200 µM |  |
| c1ccc(CNN2CN(NCc3ccccc3)CN(NCc3ccccc3)C2)cc1 | > 100 µM | 70.8 µM |  |
| O=S(=O)(O)C1CC2NC3C4CCCC(S(=O)(=O)O)C4C(Nc4ccccc4)CC3N(c3ccccc3)C2CC1Nc1ccccc1 (stereo not drawn) | 56.2 µM | > 100 µM |  |
| O=C1C(c2[nH]c3ccc(S(=O)(=O)O)cc3c2O)=Nc2ccc(S(=O)(=O)O)cc21 | > 200 µM | > 200 µM |  |
| COC1(OC)C=NNc2nccn21 | > 200 µM | > 200 µM |  |
| COc1ccc2nc3ccccc3c(NCCCN(C)CCCl)c2c1 | > 200 µM | 0.501 µM |  |
| C=C(C)CCOC(c1ccccc1)(c1ccccc1)c1ccccc1 | > 21.9 µM | > 21.9 µM |  |
| C1CCCC(N2N=NC3C4CC(C5N=NN(C6CCCCCC6)C45)C32)CC1 (stereo not drawn) | > 200 µM | > 200 µM |  |
| CC1(C)C(=O)c2cc3ccccc3nc2-c2ccccc21 | > 200 µM | 24.5 µM |  |
| O=C1N=C(SC(SC2=NC(=O)C3(NN2)c2ccccc2-c2ccccc23)=C(SC2=NC(=O)C3(NN2)c2ccccc2-c2ccccc23)SC2=NC(=O)C3(NN2)c2ccccc2-c2ccccc23)NNC12c1ccccc1-c1ccccc12 | > 91.2 µM | 42.7 µM |  |
| C=CP(=S)(c1ccccc1)c1ccccc1 | > 56.2 µM | > 56.2 µM |  |
| CC(C)CC(NC(=O)C(Cc1ccc(O)cc1)NC(=O)C(CO)NC(=O)C(CCC(=O)O)NC(=O)C1CCCN1C(=O)C(CC(C)C)NC(=O)C(C)NC(=O)CNC(=O)C(N)CCC(=O)O)C(=O)NCC(=O)O (stereo not drawn) (H-EGALPESYLG-OH; configuration not given here) |  |  | inactive |
| CC(=O)Oc1cc(OC(C)=O)c2c(C)cc(=O)oc2c1 | > 200 µM | 148 µM |  |
| CN1CCCCCCCC(=O)C(OC(=O)c2ccc([N+](=O)[O-])cc2)CCCCCCC1 (stereo not drawn) | > 100 µM | 72.4 µM |  |
| COc1cc2c(cc1OC)C1C(=O)c3c(O)cc4c(c3OC1CO2)C=CC(C)(C)O4 (stereo not drawn) | > 1.82 µM | 0.891 µM |  |
| CC1=CC(C)(C)NN1C1=NS(=O)(=O)c2ccccc2N1C | > 200 µM | > 200 µM |  |
| COCC(O)Cn1ccnc1[N+](=O)[O-] (stereo not drawn) | > 1230 µM | > 1230 µM |  |
| CCCNC(=O)Nc1c([N+](=O)[O-])cc(C(F)(F)F)cc1[N+](=O)[O-] |  |  | inactive |
| O=C(Nc1ccccc1)c1cc2c(cc1Cl)Sc1nccn1S2(=O)=O | > 200 µM | > 100 µM |  |

| Structure (SMILES) | EC50 | IC50 | outcome |
| --- | --- | --- | --- |
| Cc1cccc(NC(=O)/C(=N\NC(C)(C)C)C2NC(=S)NC2=O)c1C (stereo not drawn) | > 72.4 µM | > 72.4 µM |  |
| OC1(c2ccccc2)CSc2ncnn21 (stereo not drawn) | 138 µM | > 200 µM |  |
| Nc1nc(N)c(-c2cccc(C(F)(F)F)c2)c(Cc2cccc(C(F)(F)F)c2)n1 | > 20 µM | 0.759 µM |  |
| O=c1[nH]cnc2c(NC3OC(CO)C(O)C3O)cccc12 (stereo not drawn) |  |  | inactive |
| CC1(C2=CCCCC2)CCC(=O)NC1=O (stereo not drawn) | > 200 µM | > 200 µM |  |
| C[n+]1cc(C(O)c2ccc3c(c2)OCO3)c2ccccc2c1 (stereo not drawn) | > 100 µM | 29.5 µM |  |
| O=P(O)(O)c1ccccc1Oc1ccccc1 | > 200 µM | > 200 µM |  |
| CCOC(=O)c1c(NC(=O)CCl)ssc1=S | > 200 µM | 50.1 µM |  |
| [N-]=[N+]=NC1=NNC2(C(=O)N1)c1ccccc1-c1ccccc12 | > 100 µM | > 100 µM |  |
| Cc1c2ccccc2nc(CSOCCO)[n+]1[O-] | > 200 µM | > 200 µM |  |
| Fc1nc(-c2c3ccccc3c3sc4ccccc4n23)nc(N2CCOCCOCCOCCOCC2)n1 | > 200 µM | 51.3 µM |  |
| CCN(CC)/[N+]([O-])=N/OCC(C)O (stereo not drawn) | > 8130 µM | > 8130 µM |  |
| COC(=O)[C@H](Cc1ccccc1)NP(=O)(O)OCC1C=CC(n2cc(C)c(=O)[nH]c2=O)O1 (stereo partly drawn) | 8.71 µM | > 200 µM |  |
| O=C(CC(C(=O)c1ccco1)c1ccco1)c1ccco1 (stereo not drawn) | > 200 µM | 145 µM |  |
| COC(=O)c1c(NC(=O)C(C)C)n[nH]c1NC(=O)C(C)C |  |  | inactive |
| OCC1OC(c2cccc3cc(O)c(O)cc23)CC1O (stereo not drawn) | > 200 µM | 51.3 µM |  |
| CC(=O)[O-].O=C([N-]/N=C\c1ccoc1)c1ccncc1.[Ni+2].[OH3+].[OH3+].c1ccncc1 | > 200 µM | > 200 µM |  |
| O=C1CC2CCCC23CC2(CCN13)OCCO2 (stereo not drawn) |  |  | inactive |
| OC1c2ccccc2C2C(O)c3ccccc3C12 (stereo not drawn) |  |  | inactive |
| CCOC(=O)CN=c1nc(SC)sc2c(C(=O)OCC)nc(Sc3ccccc3)n12 | > 60.3 µM | 10.7 µM |  |
| COc1ccc(N=Nc2c(N)nn3cc4c(nc23)CCCCC4)cc1 | > 200 µM | 34.7 µM |  |
| O=C(CCc1cc(-c2ccccc2)nc(=S)[nH]1)Nc1ccccc1[N+](=O)[O-] | > 661 µM | > 661 µM |  |
| CCC(=O)c1cn(C)c(=O)c2ccccc12 |  |  | inactive |
| Cc1c2c(n(CCN(C)C)c1C)NN=C(C#N)S2(=O)=O | > 200 µM | > 200 µM |  |
| CSc1nc(Cl)c2c(n1)Sc1nc3ccccc3n1N=C2 | > 100 µM | 55 µM |  |
| O=C1CCC(=O)N1Cc1ccccc1N=[N+]([O-])c1ccccc1CN1C(=O)CCC1=O |  | > 200 µM | inactive |
